Columns and labels:
D(1A) dopamine receptor [1] = biological target: T1, D(1A) dopamine receptor (Homo sapiens, UniProt P21728)
D(1A) dopamine receptor [2] = biological target: T1, D(1A) dopamine receptor; remark: listed apart in the source
[3] = biological target: T2, Gamma-aminobutyric acid receptor subunit alpha-1 (Rattus norvegicus, UniProt P62813)
[4] = biological target: T3, 5-hydroxytryptamine receptor 1A (Homo sapiens, UniProt P08908); format: functional, cell-based
T3 sequence (P08908 whole entry): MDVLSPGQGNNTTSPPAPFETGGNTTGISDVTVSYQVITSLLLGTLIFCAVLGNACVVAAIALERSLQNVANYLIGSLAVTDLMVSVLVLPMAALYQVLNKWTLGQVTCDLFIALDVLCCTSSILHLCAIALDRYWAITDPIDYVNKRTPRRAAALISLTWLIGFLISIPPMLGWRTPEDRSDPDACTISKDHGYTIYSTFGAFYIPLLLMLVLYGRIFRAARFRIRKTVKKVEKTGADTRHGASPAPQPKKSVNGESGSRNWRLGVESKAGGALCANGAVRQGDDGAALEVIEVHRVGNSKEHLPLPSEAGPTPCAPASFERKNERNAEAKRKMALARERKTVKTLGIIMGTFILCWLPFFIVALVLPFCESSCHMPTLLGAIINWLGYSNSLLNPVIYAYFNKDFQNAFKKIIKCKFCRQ

D(3) dopamine receptor [5] = biological target: T4, D(3) dopamine receptor (Homo sapiens, UniProt P35462)
T4 sequence (P35462 whole entry): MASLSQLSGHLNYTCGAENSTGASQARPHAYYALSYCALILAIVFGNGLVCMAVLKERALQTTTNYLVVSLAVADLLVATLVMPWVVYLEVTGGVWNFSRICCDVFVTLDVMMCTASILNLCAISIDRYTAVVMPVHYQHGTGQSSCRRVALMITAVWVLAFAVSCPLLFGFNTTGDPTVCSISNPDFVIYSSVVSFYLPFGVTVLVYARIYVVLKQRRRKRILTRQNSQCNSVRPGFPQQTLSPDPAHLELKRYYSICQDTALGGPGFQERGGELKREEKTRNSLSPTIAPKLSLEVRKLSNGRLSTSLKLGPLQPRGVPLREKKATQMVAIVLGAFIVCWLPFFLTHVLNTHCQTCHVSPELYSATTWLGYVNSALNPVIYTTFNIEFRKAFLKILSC

Mu-type opioid receptor [6] = biological target: T5, Mu-type opioid receptor (Homo sapiens, UniProt P35372)
T5 sequence (P35372 whole entry): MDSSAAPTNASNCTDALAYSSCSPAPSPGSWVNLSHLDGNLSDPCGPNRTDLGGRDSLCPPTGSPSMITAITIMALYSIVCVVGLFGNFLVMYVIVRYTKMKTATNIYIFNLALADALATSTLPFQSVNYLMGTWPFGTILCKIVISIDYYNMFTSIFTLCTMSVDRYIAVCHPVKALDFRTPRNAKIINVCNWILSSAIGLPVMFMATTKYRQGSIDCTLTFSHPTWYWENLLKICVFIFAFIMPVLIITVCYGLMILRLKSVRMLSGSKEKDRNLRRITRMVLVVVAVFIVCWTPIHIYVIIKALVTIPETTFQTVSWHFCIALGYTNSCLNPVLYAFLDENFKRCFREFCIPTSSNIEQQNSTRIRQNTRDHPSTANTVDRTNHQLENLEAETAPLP

D(1A) dopamine receptor [7] = biological target: T1, D(1A) dopamine receptor; remark: listed apart in the source
[8] = biological target: T6, Sodium-dependent dopamine transporter (Homo sapiens, UniProt Q01959)
T6 sequence (Q01959 whole entry): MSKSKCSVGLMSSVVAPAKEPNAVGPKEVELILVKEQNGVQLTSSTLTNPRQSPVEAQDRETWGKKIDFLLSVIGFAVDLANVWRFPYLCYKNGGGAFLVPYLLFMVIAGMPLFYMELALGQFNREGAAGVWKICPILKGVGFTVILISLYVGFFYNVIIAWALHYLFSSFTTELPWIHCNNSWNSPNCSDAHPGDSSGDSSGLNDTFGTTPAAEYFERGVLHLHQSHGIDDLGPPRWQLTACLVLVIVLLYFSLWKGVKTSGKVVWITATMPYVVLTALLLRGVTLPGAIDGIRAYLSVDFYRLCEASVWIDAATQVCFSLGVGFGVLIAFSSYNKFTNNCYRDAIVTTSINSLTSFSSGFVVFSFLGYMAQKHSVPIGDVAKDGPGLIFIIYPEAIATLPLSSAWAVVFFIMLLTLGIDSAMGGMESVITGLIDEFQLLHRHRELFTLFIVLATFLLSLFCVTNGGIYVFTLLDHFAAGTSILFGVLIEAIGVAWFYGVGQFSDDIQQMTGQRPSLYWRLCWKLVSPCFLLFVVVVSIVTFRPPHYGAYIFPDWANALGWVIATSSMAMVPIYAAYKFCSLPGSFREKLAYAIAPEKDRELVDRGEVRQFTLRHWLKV

[9] = biological target: Delta-type opioid receptor (Homo sapiens, UniProt P41143)
Sequence of Delta-type opioid receptor (P41143 whole entry): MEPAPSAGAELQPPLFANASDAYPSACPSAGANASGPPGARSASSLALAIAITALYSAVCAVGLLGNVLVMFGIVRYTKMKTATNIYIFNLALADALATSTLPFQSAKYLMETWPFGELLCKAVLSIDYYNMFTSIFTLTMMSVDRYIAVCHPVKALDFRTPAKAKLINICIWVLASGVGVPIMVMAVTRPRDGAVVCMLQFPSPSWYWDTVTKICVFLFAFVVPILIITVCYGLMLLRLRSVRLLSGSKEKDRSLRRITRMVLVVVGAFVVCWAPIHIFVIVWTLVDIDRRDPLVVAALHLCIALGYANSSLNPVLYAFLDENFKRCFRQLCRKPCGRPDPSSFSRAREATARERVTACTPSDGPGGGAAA

[10] = biological target: T7, 5-hydroxytryptamine receptor 2B (Homo sapiens, UniProt P41595); format: functional, cell-based
T7 sequence (P41595 whole entry): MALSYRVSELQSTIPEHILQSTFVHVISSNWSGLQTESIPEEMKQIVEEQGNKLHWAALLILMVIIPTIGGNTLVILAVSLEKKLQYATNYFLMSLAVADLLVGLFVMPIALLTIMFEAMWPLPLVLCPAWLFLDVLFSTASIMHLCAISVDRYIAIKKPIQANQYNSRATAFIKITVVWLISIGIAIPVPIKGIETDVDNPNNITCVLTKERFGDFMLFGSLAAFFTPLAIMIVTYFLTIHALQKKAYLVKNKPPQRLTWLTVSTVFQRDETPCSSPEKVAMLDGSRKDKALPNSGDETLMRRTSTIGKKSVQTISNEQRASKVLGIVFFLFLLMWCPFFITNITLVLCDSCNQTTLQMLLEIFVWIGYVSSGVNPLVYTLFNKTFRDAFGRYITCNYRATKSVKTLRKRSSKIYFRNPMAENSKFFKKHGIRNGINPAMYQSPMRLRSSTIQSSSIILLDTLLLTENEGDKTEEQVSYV

[11] = biological target: T8, Sodium-dependent noradrenaline transporter (Homo sapiens, UniProt P23975)
T8 sequence (P23975 whole entry): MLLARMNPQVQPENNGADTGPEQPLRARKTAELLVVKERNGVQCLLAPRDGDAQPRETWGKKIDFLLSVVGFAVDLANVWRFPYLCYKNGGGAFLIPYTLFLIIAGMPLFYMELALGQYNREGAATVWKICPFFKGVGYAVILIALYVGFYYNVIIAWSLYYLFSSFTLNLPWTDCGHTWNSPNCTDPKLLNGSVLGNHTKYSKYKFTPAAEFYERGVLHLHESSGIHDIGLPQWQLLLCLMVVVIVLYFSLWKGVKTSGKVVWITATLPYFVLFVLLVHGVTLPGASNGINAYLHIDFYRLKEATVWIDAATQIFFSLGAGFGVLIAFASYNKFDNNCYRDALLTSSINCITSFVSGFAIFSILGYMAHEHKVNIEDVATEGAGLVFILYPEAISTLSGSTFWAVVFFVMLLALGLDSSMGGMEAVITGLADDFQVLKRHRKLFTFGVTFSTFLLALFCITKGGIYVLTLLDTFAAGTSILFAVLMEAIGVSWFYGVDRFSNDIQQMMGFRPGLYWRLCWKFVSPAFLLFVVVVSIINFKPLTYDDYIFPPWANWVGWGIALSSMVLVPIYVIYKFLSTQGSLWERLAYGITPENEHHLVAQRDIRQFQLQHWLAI

[12] = biological target: Kappa-type opioid receptor (Homo sapiens, UniProt P41145)
Sequence of Kappa-type opioid receptor (P41145 whole entry): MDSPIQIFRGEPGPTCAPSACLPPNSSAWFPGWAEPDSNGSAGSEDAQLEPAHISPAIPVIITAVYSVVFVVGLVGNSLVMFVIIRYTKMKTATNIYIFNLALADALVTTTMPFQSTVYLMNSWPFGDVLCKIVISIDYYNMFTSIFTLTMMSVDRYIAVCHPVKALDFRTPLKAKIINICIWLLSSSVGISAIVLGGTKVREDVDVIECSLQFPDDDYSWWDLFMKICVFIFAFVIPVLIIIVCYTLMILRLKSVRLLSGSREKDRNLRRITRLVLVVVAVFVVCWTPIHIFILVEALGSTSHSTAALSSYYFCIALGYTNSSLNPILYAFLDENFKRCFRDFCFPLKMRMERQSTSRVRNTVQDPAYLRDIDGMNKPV

[13] = biological target: T2, Gamma-aminobutyric acid receptor subunit alpha-1; format: functional
[14] = biological target: T3, 5-hydroxytryptamine receptor 1A
[15] = biological target: T2, Gamma-aminobutyric acid receptor subunit alpha-1; remark: listed apart in the source
[16] = biological target: T7, 5-hydroxytryptamine receptor 2B; format: functional, cell-based; remark: listed apart in the source
[17] = biological target: T6, Sodium-dependent dopamine transporter; remark: listed apart in the source
[18] = biological target: T9, 5-hydroxytryptamine receptor 3A (Homo sapiens, UniProt P46098); format: functional
T9 sequence (P46098 whole entry): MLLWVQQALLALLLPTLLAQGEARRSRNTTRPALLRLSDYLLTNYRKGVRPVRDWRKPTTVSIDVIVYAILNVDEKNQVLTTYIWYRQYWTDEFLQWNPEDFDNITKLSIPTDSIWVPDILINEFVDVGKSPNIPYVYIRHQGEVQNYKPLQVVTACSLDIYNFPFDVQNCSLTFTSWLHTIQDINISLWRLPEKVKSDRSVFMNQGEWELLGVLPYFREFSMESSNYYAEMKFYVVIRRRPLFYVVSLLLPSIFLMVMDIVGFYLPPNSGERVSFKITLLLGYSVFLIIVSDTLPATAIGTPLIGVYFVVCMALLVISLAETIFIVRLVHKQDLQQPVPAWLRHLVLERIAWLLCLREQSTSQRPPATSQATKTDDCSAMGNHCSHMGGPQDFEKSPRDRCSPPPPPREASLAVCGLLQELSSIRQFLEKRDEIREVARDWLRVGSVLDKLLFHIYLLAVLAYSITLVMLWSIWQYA

[19] = biological target: T7, 5-hydroxytryptamine receptor 2B; format: functional, cell-based; remark: listed apart in the source
[20] = biological target: Voltage-dependent N-type calcium channel subunit alpha-1B (Rattus norvegicus, UniProt Q02294); format: functional
Cannabinoid receptor 1 [21] = biological target: T10, Cannabinoid receptor 1 (Homo sapiens, UniProt P21554)
T10 sequence (P21554 whole entry): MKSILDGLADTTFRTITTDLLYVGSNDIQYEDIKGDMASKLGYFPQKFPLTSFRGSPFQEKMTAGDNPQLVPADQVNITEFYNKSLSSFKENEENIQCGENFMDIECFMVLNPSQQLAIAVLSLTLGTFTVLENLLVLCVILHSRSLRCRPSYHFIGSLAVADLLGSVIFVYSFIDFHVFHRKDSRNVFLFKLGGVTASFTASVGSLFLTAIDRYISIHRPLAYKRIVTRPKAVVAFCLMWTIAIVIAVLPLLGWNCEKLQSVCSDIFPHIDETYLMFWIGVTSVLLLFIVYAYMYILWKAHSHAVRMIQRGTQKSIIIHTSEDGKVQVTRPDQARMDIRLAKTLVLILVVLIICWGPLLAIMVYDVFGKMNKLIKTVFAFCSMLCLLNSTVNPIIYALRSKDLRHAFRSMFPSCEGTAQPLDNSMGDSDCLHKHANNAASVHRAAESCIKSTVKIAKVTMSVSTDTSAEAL

D(1A) dopamine receptor [22] = biological target: T1, D(1A) dopamine receptor; format: functional, cell-based
[23] = biological target: T7, 5-hydroxytryptamine receptor 2B
Mu-type opioid receptor [24] = biological target: T5, Mu-type opioid receptor; remark: listed apart in the source
D(3) dopamine receptor [25] = biological target: T4, D(3) dopamine receptor; remark: listed apart in the source
[26] = biological target: Neuronal acetylcholine receptor subunit alpha-4 (Homo sapiens, UniProt P43681)
D(4) dopamine receptor = biological target: T11, D(4) dopamine receptor (Homo sapiens, UniProt P21917)
T11 sequence (P21917 whole entry): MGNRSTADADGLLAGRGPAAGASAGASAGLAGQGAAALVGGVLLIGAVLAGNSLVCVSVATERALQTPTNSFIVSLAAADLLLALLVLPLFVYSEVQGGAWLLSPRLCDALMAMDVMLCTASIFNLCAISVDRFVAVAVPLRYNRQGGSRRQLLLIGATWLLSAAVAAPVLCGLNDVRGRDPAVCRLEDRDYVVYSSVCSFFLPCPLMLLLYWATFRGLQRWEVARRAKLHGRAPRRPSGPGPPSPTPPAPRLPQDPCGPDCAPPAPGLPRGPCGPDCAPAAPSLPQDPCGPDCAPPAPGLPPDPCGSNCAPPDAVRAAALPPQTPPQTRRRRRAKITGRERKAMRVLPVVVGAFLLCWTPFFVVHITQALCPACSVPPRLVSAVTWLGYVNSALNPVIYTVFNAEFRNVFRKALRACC

[27] = biological target: Glutamate receptor ionotropic, NMDA 1 (Rattus norvegicus, UniProt P35439)
Cannabinoid receptor 1 [28] = biological target: T10, Cannabinoid receptor 1; format: functional, cell-based
[29] = biological target: T3, 5-hydroxytryptamine receptor 1A; format: functional, cell-based; remark: listed apart in the source
[30] = biological target: T12, 5-hydroxytryptamine receptor 2C (Homo sapiens, UniProt P28335)
T12 sequence (P28335 whole entry): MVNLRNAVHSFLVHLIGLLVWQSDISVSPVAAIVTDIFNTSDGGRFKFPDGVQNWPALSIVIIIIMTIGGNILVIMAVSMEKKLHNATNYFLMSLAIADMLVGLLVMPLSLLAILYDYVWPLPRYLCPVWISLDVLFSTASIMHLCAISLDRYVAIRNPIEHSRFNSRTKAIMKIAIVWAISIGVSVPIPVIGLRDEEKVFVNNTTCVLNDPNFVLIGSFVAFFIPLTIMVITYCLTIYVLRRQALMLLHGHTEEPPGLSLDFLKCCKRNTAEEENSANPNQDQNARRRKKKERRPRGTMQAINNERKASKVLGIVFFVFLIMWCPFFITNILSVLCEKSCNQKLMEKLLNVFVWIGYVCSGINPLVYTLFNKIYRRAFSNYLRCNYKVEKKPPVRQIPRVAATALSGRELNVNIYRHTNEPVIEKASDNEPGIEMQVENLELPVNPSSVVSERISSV

[31] = biological target: T3, 5-hydroxytryptamine receptor 1A; remark: listed apart in the source
[32] = biological target: T8, Sodium-dependent noradrenaline transporter; remark: listed apart in the source

Measured: AC50
Also: assay procedure not described here.

T2 sequence (P62813 whole entry): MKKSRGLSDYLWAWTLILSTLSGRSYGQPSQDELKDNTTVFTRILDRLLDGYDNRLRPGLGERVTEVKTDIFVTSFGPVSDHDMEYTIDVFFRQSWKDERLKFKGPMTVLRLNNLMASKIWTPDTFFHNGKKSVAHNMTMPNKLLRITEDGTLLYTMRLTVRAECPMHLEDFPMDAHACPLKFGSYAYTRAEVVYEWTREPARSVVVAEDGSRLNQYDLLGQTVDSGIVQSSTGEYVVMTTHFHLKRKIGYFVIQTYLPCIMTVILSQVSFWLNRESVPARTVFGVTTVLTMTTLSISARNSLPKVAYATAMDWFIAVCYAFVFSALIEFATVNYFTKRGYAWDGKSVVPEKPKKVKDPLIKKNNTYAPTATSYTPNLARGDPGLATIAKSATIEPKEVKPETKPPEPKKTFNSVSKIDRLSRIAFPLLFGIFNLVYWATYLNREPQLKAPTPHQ
T1 sequence (P21728 whole entry): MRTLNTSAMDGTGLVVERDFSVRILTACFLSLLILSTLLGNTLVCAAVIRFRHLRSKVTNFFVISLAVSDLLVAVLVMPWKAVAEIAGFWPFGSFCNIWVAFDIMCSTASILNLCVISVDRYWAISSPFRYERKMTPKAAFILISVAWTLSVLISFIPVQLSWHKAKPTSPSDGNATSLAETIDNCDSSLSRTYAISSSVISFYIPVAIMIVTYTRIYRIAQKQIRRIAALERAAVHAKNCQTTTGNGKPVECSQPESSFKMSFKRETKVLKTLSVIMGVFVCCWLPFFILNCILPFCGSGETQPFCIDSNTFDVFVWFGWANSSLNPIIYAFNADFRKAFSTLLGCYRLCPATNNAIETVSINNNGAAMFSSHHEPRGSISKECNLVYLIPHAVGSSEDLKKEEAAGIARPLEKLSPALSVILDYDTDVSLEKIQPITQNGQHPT

COC(=O)C1=C(C)NC(C)=C(C(=O)OC)C1c1ccccc1[N+](=O)[O-] [NIFEDIPINE]
> 30 µM: D(1A) dopamine receptor [1] | [3] | [8] | [9] | [11] | [14] | [18] | [19] | Mu-type opioid receptor [24] | D(3) dopamine receptor [25] | Cannabinoid receptor 1 [28] | [30]
26 µM: D(1A) dopamine receptor [7]
11 µM: Mu-type opioid receptor [6]
6.8 µM: [10]
> 10 µM: all other assays above
